Literature values as cited in patent publication US6403571B2, “Combination therapy for reducing the risks associated with cardiovascular disease” (Merck & Co., Inc., priority 1996, dated 2002).
Where a name gives a salt, the structure may show the parent alone. Blank lines part the entries; values can stand above or below the compound they belong to. Where a SMILES comes first, the peptide text is derived from it. Bridges are numbered along the chain shown (N, C = ends). [ ]: non-standard residue; d: D form. hArg = N=C(N)NCCCC[C@H](N)C(=O)O; Mpa = O=C(O)CCS

Columns and labels:
GP IIb/IIIa [1] = molecular target: T1, GP IIb/IIIa (Homo sapiens, UniProt P05106+P08514)
GP IIb/IIIa [2] = molecular target: T1, GP IIb/IIIa; details: for selectivity for GP IIb/IIIa: administered intravenously
αvβ3 = αvβ3 (Homo sapiens, UniProt P05106+P06756)
αvβ3, sequence (P06756 31-889 limits assumed): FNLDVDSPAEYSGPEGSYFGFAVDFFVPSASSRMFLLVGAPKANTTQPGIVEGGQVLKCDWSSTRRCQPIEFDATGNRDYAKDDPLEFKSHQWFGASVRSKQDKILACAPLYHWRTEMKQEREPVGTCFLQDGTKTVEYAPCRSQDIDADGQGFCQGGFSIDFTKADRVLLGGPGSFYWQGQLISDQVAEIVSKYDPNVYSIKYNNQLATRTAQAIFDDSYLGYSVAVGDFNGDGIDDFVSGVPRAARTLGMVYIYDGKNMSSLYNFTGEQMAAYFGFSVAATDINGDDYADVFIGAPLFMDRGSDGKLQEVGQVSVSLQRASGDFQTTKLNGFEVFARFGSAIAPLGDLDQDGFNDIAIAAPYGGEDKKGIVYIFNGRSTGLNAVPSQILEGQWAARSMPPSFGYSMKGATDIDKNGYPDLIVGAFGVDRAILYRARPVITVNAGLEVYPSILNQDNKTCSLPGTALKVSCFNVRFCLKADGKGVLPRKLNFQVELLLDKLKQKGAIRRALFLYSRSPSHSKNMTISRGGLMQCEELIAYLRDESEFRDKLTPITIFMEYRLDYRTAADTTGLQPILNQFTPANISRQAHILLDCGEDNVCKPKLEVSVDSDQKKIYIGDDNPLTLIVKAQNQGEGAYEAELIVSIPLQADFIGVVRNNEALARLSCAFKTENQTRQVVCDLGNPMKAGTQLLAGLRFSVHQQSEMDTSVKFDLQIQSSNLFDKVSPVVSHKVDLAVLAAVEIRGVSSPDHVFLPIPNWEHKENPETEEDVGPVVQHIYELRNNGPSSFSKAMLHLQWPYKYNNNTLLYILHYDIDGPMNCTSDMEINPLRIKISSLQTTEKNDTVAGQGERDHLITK
αvβ3, sequence (P06756 891-1048 partner limits assumed): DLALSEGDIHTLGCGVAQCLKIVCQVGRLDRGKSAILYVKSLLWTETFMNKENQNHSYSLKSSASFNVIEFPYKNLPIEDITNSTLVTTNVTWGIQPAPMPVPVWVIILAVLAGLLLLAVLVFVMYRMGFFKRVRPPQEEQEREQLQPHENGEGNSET
αvβ3, sequence (P05106 27-788): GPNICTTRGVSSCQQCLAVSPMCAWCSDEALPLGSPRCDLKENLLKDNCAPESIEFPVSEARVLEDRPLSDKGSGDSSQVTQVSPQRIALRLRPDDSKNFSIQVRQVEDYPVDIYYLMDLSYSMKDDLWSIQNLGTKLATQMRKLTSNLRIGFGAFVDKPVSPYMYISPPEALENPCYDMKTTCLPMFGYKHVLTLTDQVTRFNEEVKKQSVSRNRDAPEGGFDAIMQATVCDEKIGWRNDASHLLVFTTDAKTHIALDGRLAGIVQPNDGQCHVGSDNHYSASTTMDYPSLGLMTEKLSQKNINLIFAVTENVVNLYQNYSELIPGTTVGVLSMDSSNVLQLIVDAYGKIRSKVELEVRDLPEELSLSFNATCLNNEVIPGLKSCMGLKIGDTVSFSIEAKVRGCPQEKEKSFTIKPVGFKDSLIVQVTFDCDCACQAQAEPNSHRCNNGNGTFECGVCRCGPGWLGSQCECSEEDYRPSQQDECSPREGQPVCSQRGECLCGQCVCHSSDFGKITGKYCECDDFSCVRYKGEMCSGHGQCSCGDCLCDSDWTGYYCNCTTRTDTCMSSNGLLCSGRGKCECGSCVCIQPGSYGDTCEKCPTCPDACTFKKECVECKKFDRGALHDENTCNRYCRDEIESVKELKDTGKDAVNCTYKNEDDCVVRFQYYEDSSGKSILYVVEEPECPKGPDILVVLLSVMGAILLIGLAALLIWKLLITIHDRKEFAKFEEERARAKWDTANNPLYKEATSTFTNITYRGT

[3] = prodrug, requires biotransformation in vivo to its active form

Compound: 7E3: monoclonal antibody which blocks the GP IIb/IIIa receptor and the αvβ3 receptor [Compound 7E3]
need for transfusion (GP IIb/IIIa [1]; 7E3 added to heparin and aspirin, increasing from 3%): 6%
incidence of patients with decreased hematocrit (GP IIb/IIIa [1]; 7E3 added to heparin and aspirin, increasing from 7%): 15%
combined endpoints of death, non-fatal myocardial infarction (MI) and need for urgent revascularization (GP IIb/IIIa [1]; 7E3 added to standard regime of heparin and aspirin, decrease from 12.8% without blockade): 8.3%

Compound: N=C(N)NCCCC[C@@H]1NC(=O)CCSSC[C@@H](C(N)=O)NC(=O)[C@@H]2CCCN2C(=O)[C@H](Cc2c[nH]c3ccccc23)NC(=O)[C@H](CC(=O)O)NC(=O)CNC1=O [Integrelin] ([Mpa][hArg]GDWPC-NH2; disulfide 1-7)
effect on ligand binding to GP IIb/IIIa (GP IIb/IIIa [2]): inhibits ligand binding
effect on ligand binding to αvβ3 (αvβ3): very little effect

Compound: CCCCS(=O)(=O)N[C@@H](Cc1ccc(OCCCCC2CCNCC2)cc1)C(=O)O [MK-383, 2-S-(n-Butylsulfonylamino)-3[4-piperidin-4-yl)butyloxyphenyl]propionic acid hydrochloride]
selectivity for GP IIb/IIIa (GP IIb/IIIa [2]): selective

Other lines, results leading:

selectivity for GP IIb/IIIa (GP IIb/IIIa [2]): selective
Compound: N=C(N)c1ccc(C(=O)N[C@@H](Cc2ccc(O)cc2)C(=O)N2CCC(OCC(=O)O)CC2)cc1 [Ro 44-9883]

oral bioavailability [3]: high oral bioavailability
Compound: C#C[C@H](CC(=O)OCC)NC(=O)CCC(=O)Nc1ccc(C(=N)N)cc1 [SC54684, ethyl 3-[[4-[[4-(aminoiminomethyl)phenyl]amino]-1,4-dioxobutyl]amino]-4-pentynoate]
